These results are taken from patent publication US6555710B1, “Aminobenzophenones as inhibitors of IL-1 β and TNF-α” (Leo Pharmaceutical Products Ltd a/s Lovens Kemiske Fabrik …, priority 1999, dated 2003).

Holding throughout (type): cell-based
Assay [1] has as its system TNF-α. In words: Inhibition of TNF-α secretion in LPS stimulated peripheral blood mononuclear cells (ELISA). To be noted: PBMC; LPS stimulated human peripheral blood mononuclear cells, 18 hours; read-out: The median inhibition concentration (IC50) of TNF-α. On the procedure: (§1) To study the effect of the compound of the present invention in vitro the inhibition of the IL-1β and TNF-α secretion was measured using the following procedure:
(§2) Cytokine production was measured in the media from lipopolysaccharide (LPS) stimulated peripheral blood mononuclear cells. The mononuclear cells were isolated from human peripheral blood by Lymphoprep® (Nycomed, Norway) fractionation and suspended in RPMI 1640 (growth medium) with foetal calv serum (FCS, 2%), at a concentration of 5×10^5 cells/ml. The cells were incubated in 24-well tissue culture plates in 1 ml aliquots. Test compounds were dissolved in dimethylsulfoxide (DMSO, 10 mM) and were diluted with the medium. Compounds were added to the cells for 30 minutes, then LPS ([…] final concentration) was added. The plates were incubated for 18 hours, and the concentration of IL-1β and TNF-α in the medium was determined by enzyme-linked immunosorbent assays. The median inhibitory concentrations (IC50) of the compounds were calculated.
(In an ELISA, binding on a coated surface is turned into a signal by an enzyme label.)

The test system of assay [2] is Human polymorphonuclear (PMN) granulocytes. In words: Inhibition of PMN superoxide secretion (ferricytochrome C reduction, TNF-α primed, fMLP stimulated). To be noted: read-out: The median inhibition concentration (IC50) of PMN-superoxide. On the procedure:
The compounds of the present invention also show similar activities in the ability to inhibit PMN (polymorphonuclear) superoxide secretion which is also indicative of potentially useful anti-inflammatory drugs. The compounds were tested using the following procedure:
Human polymorphonuclear (PMN) granulocytes were isolated from human blood by dextran sedimentation, Lymphoprep® fractionation and hypotonic lysis of contaminating erythrocytes. Superoxide anion generation was measured as the superoxide dismutase inhibitable reduction of ferricytochrome C (Madhu, S. B. et al, Inflammation, 16, 241, (1992)). The cells were suspended in Hanks' balanced salt solution, and incubated for 10 minutes at 37° C. with test compounds. The cells were primed by the addition of TNF-α (3 ng/ml final concentration) for 10 minutes, and then ferricytochrome C, (final concentration 750 μg/ml), bovine serum albumin (BSA, final concentration 1 mg/ml) and formyl-methionyl-leucyl-phenylalanine (fMLP, final concentration 10^−7 M) were added for 3 minutes. The cells were chilled on ice, and were spun down. The optical densities in the cell-free supernatant was measured in a spectrophotometer. The median inhibitory concentration (IC50) of the compounds was calculated.

In assay [3] the test system is IL-1β. In words: Inhibition of IL-1β secretion in LPS stimulated peripheral blood mononuclear cells (ELISA). The conditions noted are these: PBMC; LPS stimulated human peripheral blood mononuclear cells, 18 hours; read-out: The median inhibition concentration (IC50) of IL-1β. On the procedure: as §1, §2

For `Cc1ccccc1C(=O)c1ccc(Nc2ccc(F)cc2NC(=O)C(F)(F)F)cc1Cl` [Compound 102, 2,2,2-Trifluoro-N-[2-[3-chloro-4-(2-methylbenzoyl)-phenylamino]-5-fluoro-phenyl]acetamide], the values for the IC50 in assay [1], in assay [2] and in assay [3] were 3.2 nM, 25 nM and 6.3 nM, respectively.

For the compound `Cc1ccccc1C(=O)c1ccc(Nc2ccccc2NC(=O)C(F)(F)F)cc1Cl` [ref. b), 2,2,2-Trifluoro-N-[2-[3-chloro-4-(2-methylbenzoyl)-phenylamino]-phenyl]acetamide, reference compound], the values for the IC50 in assay [1], in assay [2] and in assay [3] were 4 nM, 13 nM and 20 nM, respectively.

In the case of `Cc1ccccc1C(=O)c1ccc(Nc2ccc(Br)cc2NC(=O)C(F)(F)F)cc1Cl` [Compound 101, 2,2,2-Trifluoro-N-[5-bromo-2-[3-chloro-4-(2-methylbenzoyl)-phenylamino]-phenyl]acetamide], the figures for the IC50 in assay [1], in assay [2] and in assay [3] were 6.3 nM, 13 nM and 32 nM, respectively.
